# Experimental data published in US9255128B2, “Nucleic acid for determining actin structures in living cells” (Max-Planck-Gesellschaft zur Forderung der Wissenschaften …, priority 2007, dated 2016).
# Key:
# non-muscle actin = test: F-actin co-sedimentation assay, non-muscle actin; assay type: binding
# Method: Muscle actin, non-muscle actin, α-actinin and pyrene actin were purchased from Cytoskeleton, Inc. Actin was diluted to working concentrations in G buffer (2 mM Tris HCl, pH 8.0, 0.2 mM ATP, 0.1 mM CaCl2, 0.5 mM DTT).
# Polymerization of actin was induced by addition of 0.1 volume 10×KMEI buffer (50 mM KCl, 1 mM MgCl2, 1 mM EGTA, 10 mM imidazole HCl, pH 7.0) and incubation for >1 h at room temperature (RT). […] The supernatant was removed and the pellet resuspended in 100 μl of 1×KMEI buffer. The amount of peptide was measured in a Cary Eclipse Fluorescence Spectrophotometer with excitation/emission set for FITC at 495 nm/520 nm. The bound/total ratio was calculated as the signal from the pellet divided by the total signal. The Kd was obtained by fitting to a hyperbolic curve.
# F-actin in MDCK cells = test: Double staining of PFA fixed MDCK cells with Cy3-conjugated phalloidin; assay type: cell-based, canine; details: TIRF microscopy
# Text: (§1) TIRE images were captured on an iMic-stand from Till photonics with an 1.45 NA 100× objective from Olympus. A 300 mW Argon laser and a 20 mW DPSS 561 nm laser were selected through an AOTF. A 2-axis scan head (Yanus II) was used to digitally adjust the TIRE angle. Images were collected with a cooled Imago QE CCD camera. Acquisition was controlled by the TILLvisION software package. Confocal images were collected on a standard Leica SP2 setup. Epifluorescence images were collected on a Zeiss axiovert 200M stand equipped with a climate control chamber from EMBL.
# [1] = Solubility of peptide in PBS; assay type: physicochemical
# mouse dendritic cells = test: Chemotactic dendritic cell migration in 3-dimensional collagen matrix; assay type: cell-based; details: CCL19 gradient
# Method: (§2) Mouse primary dendritic cells were generated from flushed bone marrow suspension as described previously^30. At day 8-10 cells were nucleofected using the primary mouse T cell kit and the Amaxa nucleoporator according to the manufacturers recommendations and immediately after transfection 200 ng/ml LPS were added over night and cells were subsequently sorted into GFP positive and negative fractions by using fluorescent activated cell sorting. MDCK cells and mouse embryonic Fibroblasts were grown according to standard procedures and transfected using lipofectamine.
# PureCol™ gels containing mature dendritic cells were cast as described previously. Gels were overlayed with 50 μl of 0.6 μg/ml CCL19 (R&D Systems) in RPMI, 10% FCS and imaged on an inverted Axiovert 40 (Zeiss) microscopes, equipped with custom built climate chambers (5% CO2, 37° C., humidified). Under agarose dendritic cell migration was performed as described^31. Briefly, dendritic cells were added into wells punched into an agarose layer. Recombinant CCL19 was added into the adjacent well and, following the chemokine gradient, the cells entered the space between agarose and coverslip. Chemotaxing cells were subsequently imaged with TIRF microscopy.
# [2] = test system: primary rat hippocampal neurons; test: Neuronal polarization of transfected hippocampal neurons; assay type: cell-based; details: mock transfected cells 69±9%
# Method: Primary hippocampal neurons were isolated from rat embryos as previously described. Briefly, hippocampi derived from E18 rats were dissected, trypsinized, and dissociated. Directly after dissociation, 5×10^5 hippocampal neurons were transfected by the Amaxa nucleofector system using 3 μg of highly purified plasmid DNA of pEGFP-Lifeact, pEGFP-actin or pEGFP-N2. The neurons were then immediately plated onto poly-L-lysine-coated glass coverslips in 6 cm petri dishes containing minimal essential medium (MEM) and 10% heat-inactivated horse serum. The cells were kept in 5% CO2 at 36.5° C. 6-12 hrs after plating the glass coverslips were then transferred into 6 cm petri dishes containing astrocytes in MEM and N2 supplements and kept in culture for 2DIV.
# Neurons were categorized into three stages: neurons with a single axon, multiple axons or no axon. A neurite length >35 μm was used as threshold to define the axon. Developmental stages were observed by live cell microscopy as described.
# [3] = test system: MDCK and mouse embryonic fibroblasts; test: Cytotoxicity, morphology and growth of transfected cells; assay type: cell-based; details: transiently and stably transfected cells
# Method: as §2
# [4] = test system: mouse embryonic fibroblasts; test: Lamellipodial retrograde actin flow in fibroblasts; assay type: cell-based; details: transfected fibroblasts; indistinguishable from untransfected cells
# Text: as §1
# All image processing steps were performed in Metamorph (Molecular Devices). For visualization purposes sequences were routinely processed by sequential application of a local background subtraction filter and a 3×3 gauss low pass filter. Color overlays and kymographs were created with the respective functions in Metamorph.
# as §2, with “MDCK cells and mouse embryonic Fibroblasts were grown according to standard procedures and transfected using lipofectamine.” left out
molecule,measurement,setting,value
CC[C@H](C)[C@H](NC(=O)[C@H](CC(C)C)NC(=O)[C@H](CC(=O)O)NC(=O)[C@H](C)NC(=O)[C@@H](NC(=O)CNC(=O)[C@H](CCSC)NC(=S)Nc1ccc2c(c1)C(=O)OC21c2ccc(O)cc2Oc2cc(O)ccc21)C(C)C)C(=O)N[C@@H](CCCCN)C(=O)N[C@@H](CCCCN)C(=O)N[C@@H](Cc1ccccc1)C(=O)N[C@@H](CCC(=O)O)C(=O)N[C@@H](CO)C(=O)N[C@H](C(=O)N[C@@H](CO)C(=O)N[C@@H](CCCCN)C(=O)N[C@@H](CCC(=O)O)C(=O)N[C@@H](CCC(=O)O)C(=O)O)[C@@H](C)CC [F-Lifeact],Kd,non-muscle actin,5.4 ± 2.6 µM
same,overlap with phalloidin staining,F-actin in MDCK cells,nearly complete overlap
CC[C@H](C)[C@H](NC(=O)[C@H](CC(C)C)NC(=O)[C@H](CC(=O)O)NC(=O)[C@H](C)NC(=O)[C@@H](NC(=O)CNC(=O)[C@@H](N)CCSC)C(C)C)C(=O)N[C@@H](CCCCN)C(=O)N[C@@H](CCCCN)C(=O)N[C@@H](Cc1ccccc1)C(=O)N[C@@H](CCC(=O)O)C(=O)N[C@@H](CO)C(=O)N[C@H](C(=O)N[C@@H](CO)C(=O)N[C@@H](CCCCN)C(=O)N[C@@H](CCC(=O)O)C(=O)N[C@@H](CCC(=O)O)C(=O)O)[C@@H](C)CC [Lifeact],solubility in PBS,[1],not soluble in PBS
Lifeact-G: Lifeact-GFP fusion expressed from pEGFP-N1 backbone under the CMV promoter,effect on speed of chemotactic dendritic cell migration,mouse dendritic cells,no effect
same,cells formed one axon,[2],60.1±0.2%
same,signs of cytotoxicity,[3],no signs of cytotoxicity
same,speed of retrograde flow in lamellipodia,[4],4 μm/min
